# Counter-ions that a name gives are not always drawn. Like-named read-outs stand apart in the source and are kept apart here.
# Columns and labels:
# [1] = Solubility analysis in 0.1 M HCl and phosphate buffer (pH 4.5 and pH 6.8); format: physicochemical
# Description: The solubility of Pazopanib HCl Form F and Pazopanib HCl Form A in 0.1 M HCl and phosphate buffer (pH4.5 and pH6.8) was examined in the present analysis.
# [2] = Stability / storage (statement only, no method described); format: physicochemical; conditions: no data given
Solubility (descriptive term) ([1]; 0.1M HCl),"solubility ([1]; 0.1 M HCl, simulated gastric fluid, thermodynamic from solid, 0.1M HCl, read-out: Solubility) [µg/mL]","Solubility (descriptive term) ([1]; Phosphate buffer, pH 4.5)","Solubility (descriptive term) ([1]; Phosphate buffer, pH 6.8)","solubility ([1]; 0.1M HCl, hydrochloride) [µg/mL]",SMILES,Solubility compared with Pazopanib HCl Form A ([1]; 0.1M HCl),Stability [2]
Very slightly soluble,584,Practically insoluble,Practically insoluble,–,"Cc1ccc(Nc2nccc(N(C)c3ccc4c(C)n(C)nc4c3)n2)cc1S(N)(=O)=O [Pazopanib HCl Form A, Pazopanib hydrochloride]",–,–
Very slightly soluble,–,Practically insoluble,Practically insoluble,669,"Cc1ccc(Nc2nccc(N(C)c3ccc4c(C)n(C)nc4c3)n2)cc1S(N)(=O)=O [Pazopanib HCl Form F, Pazopanib hydrochloride]",better solubility in 0.1 M HCl than Pazopanib HCl Form A,"better stability, and can be stored for a long time"
